Laboratory results published in US5234909A, “Dipeptidic amides derived from glycyl-serine as surfactants or hydrating agents and cosmetic, pharmaceutical or alimentary compositions containing the same” (L'Oreal, priority 1991, dated 1993).
Where a SMILES comes first, the peptide text is derived from it. [ ]: non-standard residue; d: D form. The star is where a group is joined. ξ: configuration not given here. Oleoyl = CCCCCCCC/C=C\CCCCCCCC(=O)*; Lauroyl = CCCCCCCCCCCC(=O)*; ξS = NC(CO)C(=O)O

Columns and labels:
[1] = Foaming power study (foam developed by brush in rotating graduated container); type: physicochemical; details: 5% aqueous solution (weight/volume), 5 ml with 6 mg natural feminine sebum; for Foam Height (cm) at the end of a time of 60 sec: 60 sec of stirring; for Foam Height (cm) at the end of a time of 120 sec: 120 sec of stirring; for Foam Height (cm) at the end of a time of 180 sec: 180 sec of stirring
Protocol: The test consists in developing the foam using a brush made of natural hog bristles (length=18 mm) displaced in a plexiglass graduated cylindrical container (inside diameter=35 mm). This container is driven in a uniform circular motion which is the reverse of that described by the brush. This permits a good distribution of the foam in the graduated container despite the small amounts developed. (brush speed =100 rpm, container speed =10 rpm). The procedure is carried out using 5 ml of each solution studied to which has been added 6 mg of natural feminine sebum. The foam heights are recorded after one, two and three minutes of stirring.

[2] = test system: human stratum corneum previously delipidated; experiment: Hydrating effect on the skin: reduction of water loss of delipidated stratum corneum (evaporimeter); details: 3% solution in 2:1 dichloromethane:methanol applied on delipidated human stratum corneum; measured 3 hours after treatment
Protocol: In this test, the hydrating effect is evaluated by measuring the reduction of water loss of human stratum corneum previously delipidated. The stratum corneum is delipidated for one hour with a 2:1 dichloromethane/methanol mixture.
This test is effected in accordance with a method analogous to that described by J. L. Leveque et coll., J. Soc. Cosmet. Chem., 30, 333-343 (1979).
The following procedures are carried out:
The water flow (g/m^2.H) traversing a sample of stratum corneum placed below a water reservoir is measured. Using an evaporimeter (Servomed, registered mark), the evaporation values before and after treatment are registered, and the eventual reduction of the insensible loss of water is thus determined.
The treatment consists in applying on the sample of stratum corneum […] of a 3% solution in a 2:1 dichloromethane: methanol mixture of the compound being studied. The measurements are carried out 3 hours after this treatment.
On the basis of this test the compound of Example 2 is compared with N-oleoyl-glycyl-glycine (compound B) and with the olvent (2:1 dichloromethane:methanol) alone.

| Foam Height (cm) at the end of a time of 60 sec [1] [cm] | Foam Height (cm) at the end of a time of 120 sec [1] [cm] | Foam Height (cm) at the end of a time of 180 sec [1] [cm] | SMILES | Reduction of the insensible loss of water [2] |
| --- | --- | --- | --- | --- |
| 12.5 | 21.25 | 28.75 | CCCCCCCCCCCC(=O)NCC(=O)NC(CO)C(=O)[O-].[Na+] (centres unmarked) [Ex. 5, Sodium Salt of N-dodecanoyl-glycyl-(D,L) Serine] (Lauroyl-Gly-[ξS]-OH) |  |
|  |  |  | CCCCCCCC/C=C\CCCCCCCC(=O)NCC(=O)NCC(=O)O [compound B, N-oleoyl-glycyl-glycine] (Oleoyl-Gly-Gly-OH) | 6% ± 3 |
|  |  |  | CCCCCCCC/C=C\CCCCCCCC(=O)NCC(=O)NC(CO)C(=O)O (centres unmarked) [Example 2, N-oleoyl-glycyl-(D,L) Serine] (Oleoyl-Gly-[ξS]-OH) | 32% ± 3 |
| 11.25 | 13.75 | 20 | CCCCCCCCCCCC(=O)NCC(=O)NCC(=O)[O-].[Na+] [compound A, sodium salt of N-dodecanoyl-glycyl-glycine] (Lauroyl-Gly-Gly-OH) |  |
